Assay results from US10941158B2, “Pyrazole ACC inhibitors and uses thereof” (Gilead Apollo, LLC, priority 2015, dated 2021).
≈ marks a conversion by molar mass, not a printed value. Like-named read-outs stand apart in the source and are kept apart here.

How the values were obtained:
[1] = target: fungal (fACC2) ACC2 (UniProt Q00955); conditions: read-out: fACC2 IC50; fungal ACC2, ADP-Glo
Procedure: An exemplary procedure for the in vitro ACC inhibition assay, which can be used to determine the inhibitory action of compounds of the invention toward either human (hACC2) or fungal (fACC2) ACC2, follows. The ADP-Glo™ Kinase Assay kit from Promega was used. The ADP-Glo™ Kinase Assay is a luminescent ADP detection assay to measure enzymatic activity by quantifying the amount of ADP produced during an enzyme reaction. The assay is performed in two steps; first, after the enzyme reaction, an equal volume of ADP-Glo™ Reagent is added to terminate the reaction and deplete the remaining ATP. Second, the Kinase Detection Reagent is added to simultaneously convert ADP to ATP and allow the newly synthesized ATP to be measured using a luciferase/luciferin reaction. Luminescence can be correlated to ADP concentrations by using an ATP-to-ADP conversion curve. The detailed procedure is as follows. 50 μL of the compound being tested (600 μM in DMSO) was added to a 384-well dilution plate. The compound was diluted 1:3 in succession in DMSO for each row for 11 wells. 0.5 μL ACC2 working solution was added to 384-well white Optiplate assay plate. 0.5 μL diluted compound solution in each column from step 2 was added to assay plate, each row containing 2 replicates. […] The plates were incubated at room temperature for 15 minutes. 5 μL substrate working solution was added to each well to initiate reaction. Final ACC2 reaction concentrations consist of: 5 nM ACC2, 20 μM ATP, 20 μM acetyl-CoA, 12 mM NaHCO3, 0.01% Brij35, 2 mM DTT, 5% DMSO, test compound concentrations: 30 μM, 10 μM, 3.33 μM, 1.11 μM, 0.37 μM, 0.123 μM, 0.0411 μM, 0.0137 μM, 0.00457 μM, 0.00152 μM, and 0.00051 μM. Plates were incubated at room temperature for 60 minutes. 10 μL ADP glo reagent was added. Plates were incubated at room temperature for 40 minutes. 20 μL kinase detection reagent was added. Plates were incubated at room temperature for 40 minutes, and then read on a Perkin Elmer EnVision 2104 plate reader for luminescence as Relative Light Units (RLU).
Data for each concentration, as well as the positive and negative controls were averaged, and the standard deviation calculated. Percent inhibition was calculated by the formula: 100×(average negative control−compound)/(average negative control−average positive control). The IC50 for each compound was calculated by fitting the data with a non-linear regression equation: Y=Bottom+(Top-Bottom)/(1+10^((Log IC50−X)*Hill Slope)), where X is the log of compound concentration and Y is percent inhibition.
Compounds having an activity designated as “AA” provided an IC50 0.0006-0.003 μM; provided an “A” provided an IC50 0.003-0.01 μM; compounds having an activity designated as “B” provided an IC50 0.01-0.04 μM; and compounds having an activity designated as “C” provided an IC50>0.04 μM IC50. “NA” stands for “not assayed.”

[2] = test system: Phytophthora capsici (Pc); test: Growth inhibition assay of fungal pathogens; format: cell-based; conditions: for IC90: Phytophthora capsici, read-out: Concentration at 90% Inhibition Pc
Method in brief: (§1)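 Compounds in DMSO tested at final 50, 10, 2 ppm or 2, 0.4, 0.08 ppm. Spores in 17% V8 medium, or 1.5 mm mycelial plugs in ¼ PDB for R. solani, incubated with compound. OD600 and visual ratings at 48 h versus 2% DMSO control gave percent growth inhibition.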

[3] = test system: Diplodia maydis (Dm); test: Growth inhibition assay of fungal pathogens; format: cell-based; conditions: Stenocarpella maydis, 48 h, read-out: Concentration at 90% Inhibition Dm
Method in brief: as §1

[4] = test system: Botrtyis cinerea (Bc); test: Growth inhibition assay of fungal pathogens; format: cell-based; conditions: 48 h, read-out: Concentration at 90% Inhibition Bc
Method in brief: as §1

[5] = test system: Fusarium moniliforme (Fm); test: Growth inhibition assay of fungal pathogens; format: cell-based; conditions: for IC90: Fusarium verticillioides, 48 h, read-out: Concentration at 90% Inhibition Fm
Method in brief: as §1

[6] = test system: Rhizoctonia solani (Rs); test: Growth inhibition assay of fungal pathogens; format: cell-based; conditions: 48 h, read-out: Concentration at 90% Inhibition Rs
Method in brief: as §1

[7] = test system: Collectotrichum graminicola (Cg); test: Growth inhibition assay of fungal pathogens; format: cell-based; conditions: 48 h, read-out: Concentration at 90% Inhibition Cg
Method in brief: as §1

[8] = test system: Septoria tritici (St); test: Growth inhibition assay of fungal pathogens; format: cell-based; conditions: for IC90: Zymoseptoria tritici, read-out: Concentration at 90% Inhibition St
Method in brief: as §1

[9] = test system: Fusarium virguliforme (Fv); test: Growth inhibition assay of fungal pathogens; format: cell-based; conditions: 48 h
Method in brief: as §1

[10] = test system: C. albicans ATCC 90028; test: Anti-Fungal (Candida) Activity Assay, broth microtiter MIC; format: cell-based; conditions: read-out: MIC C. albicans ATCC 90028
Method in brief: (§2)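 Following CLSI M27-A3 broth microdilution, direct colony suspensions in RPMI 1640+MOPS were challenged with compounds. MICs were read visually against the growth control after 48 h.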

[11] = test system: C. parapsilosis ATCC 22019; test: as above; format: cell-based; conditions: Lodderomyces parapsilosis, read-out: MIC C. parapsilosis ATCC 22019
Method in brief: as §2

[12] = test system: C. krusei ATCC 6258; test: as above; format: cell-based; conditions: Pichia kudriavzevii, read-out: MIC C. krusei ATCC 6258
Method in brief: as §2

[13] = target: human (hACC2) ACC2 (Homo sapiens, UniProt O00763); test: In vitro Acetyl-CoA Carboxylase (ACC) inhibition assay (ADP-Glo), hACC2; format: biochemical
Procedure: The detailed procedure is as follows. […] 10 μL ADP glo reagent was added. […] 20 μL kinase detection reagent was added.
“NA” stands for “not assayed.”

[14] = ATCC90028, 3 replicates, MIC recorded at 48 h
[15] = ATCC22019, 3 replicates, MIC recorded at 48 h
[16] = ATCC6258, 3 replicates, MIC recorded at 48 h
[17] = read-out: Concentration at 90% Inhibition Fv, Table 4a, 48 hours
[18] = read-out: Concentration at 90% Inhibition Fv, Table 4b, 48 hours

Chain of human (hACC2) ACC2 (O00763 whole entry): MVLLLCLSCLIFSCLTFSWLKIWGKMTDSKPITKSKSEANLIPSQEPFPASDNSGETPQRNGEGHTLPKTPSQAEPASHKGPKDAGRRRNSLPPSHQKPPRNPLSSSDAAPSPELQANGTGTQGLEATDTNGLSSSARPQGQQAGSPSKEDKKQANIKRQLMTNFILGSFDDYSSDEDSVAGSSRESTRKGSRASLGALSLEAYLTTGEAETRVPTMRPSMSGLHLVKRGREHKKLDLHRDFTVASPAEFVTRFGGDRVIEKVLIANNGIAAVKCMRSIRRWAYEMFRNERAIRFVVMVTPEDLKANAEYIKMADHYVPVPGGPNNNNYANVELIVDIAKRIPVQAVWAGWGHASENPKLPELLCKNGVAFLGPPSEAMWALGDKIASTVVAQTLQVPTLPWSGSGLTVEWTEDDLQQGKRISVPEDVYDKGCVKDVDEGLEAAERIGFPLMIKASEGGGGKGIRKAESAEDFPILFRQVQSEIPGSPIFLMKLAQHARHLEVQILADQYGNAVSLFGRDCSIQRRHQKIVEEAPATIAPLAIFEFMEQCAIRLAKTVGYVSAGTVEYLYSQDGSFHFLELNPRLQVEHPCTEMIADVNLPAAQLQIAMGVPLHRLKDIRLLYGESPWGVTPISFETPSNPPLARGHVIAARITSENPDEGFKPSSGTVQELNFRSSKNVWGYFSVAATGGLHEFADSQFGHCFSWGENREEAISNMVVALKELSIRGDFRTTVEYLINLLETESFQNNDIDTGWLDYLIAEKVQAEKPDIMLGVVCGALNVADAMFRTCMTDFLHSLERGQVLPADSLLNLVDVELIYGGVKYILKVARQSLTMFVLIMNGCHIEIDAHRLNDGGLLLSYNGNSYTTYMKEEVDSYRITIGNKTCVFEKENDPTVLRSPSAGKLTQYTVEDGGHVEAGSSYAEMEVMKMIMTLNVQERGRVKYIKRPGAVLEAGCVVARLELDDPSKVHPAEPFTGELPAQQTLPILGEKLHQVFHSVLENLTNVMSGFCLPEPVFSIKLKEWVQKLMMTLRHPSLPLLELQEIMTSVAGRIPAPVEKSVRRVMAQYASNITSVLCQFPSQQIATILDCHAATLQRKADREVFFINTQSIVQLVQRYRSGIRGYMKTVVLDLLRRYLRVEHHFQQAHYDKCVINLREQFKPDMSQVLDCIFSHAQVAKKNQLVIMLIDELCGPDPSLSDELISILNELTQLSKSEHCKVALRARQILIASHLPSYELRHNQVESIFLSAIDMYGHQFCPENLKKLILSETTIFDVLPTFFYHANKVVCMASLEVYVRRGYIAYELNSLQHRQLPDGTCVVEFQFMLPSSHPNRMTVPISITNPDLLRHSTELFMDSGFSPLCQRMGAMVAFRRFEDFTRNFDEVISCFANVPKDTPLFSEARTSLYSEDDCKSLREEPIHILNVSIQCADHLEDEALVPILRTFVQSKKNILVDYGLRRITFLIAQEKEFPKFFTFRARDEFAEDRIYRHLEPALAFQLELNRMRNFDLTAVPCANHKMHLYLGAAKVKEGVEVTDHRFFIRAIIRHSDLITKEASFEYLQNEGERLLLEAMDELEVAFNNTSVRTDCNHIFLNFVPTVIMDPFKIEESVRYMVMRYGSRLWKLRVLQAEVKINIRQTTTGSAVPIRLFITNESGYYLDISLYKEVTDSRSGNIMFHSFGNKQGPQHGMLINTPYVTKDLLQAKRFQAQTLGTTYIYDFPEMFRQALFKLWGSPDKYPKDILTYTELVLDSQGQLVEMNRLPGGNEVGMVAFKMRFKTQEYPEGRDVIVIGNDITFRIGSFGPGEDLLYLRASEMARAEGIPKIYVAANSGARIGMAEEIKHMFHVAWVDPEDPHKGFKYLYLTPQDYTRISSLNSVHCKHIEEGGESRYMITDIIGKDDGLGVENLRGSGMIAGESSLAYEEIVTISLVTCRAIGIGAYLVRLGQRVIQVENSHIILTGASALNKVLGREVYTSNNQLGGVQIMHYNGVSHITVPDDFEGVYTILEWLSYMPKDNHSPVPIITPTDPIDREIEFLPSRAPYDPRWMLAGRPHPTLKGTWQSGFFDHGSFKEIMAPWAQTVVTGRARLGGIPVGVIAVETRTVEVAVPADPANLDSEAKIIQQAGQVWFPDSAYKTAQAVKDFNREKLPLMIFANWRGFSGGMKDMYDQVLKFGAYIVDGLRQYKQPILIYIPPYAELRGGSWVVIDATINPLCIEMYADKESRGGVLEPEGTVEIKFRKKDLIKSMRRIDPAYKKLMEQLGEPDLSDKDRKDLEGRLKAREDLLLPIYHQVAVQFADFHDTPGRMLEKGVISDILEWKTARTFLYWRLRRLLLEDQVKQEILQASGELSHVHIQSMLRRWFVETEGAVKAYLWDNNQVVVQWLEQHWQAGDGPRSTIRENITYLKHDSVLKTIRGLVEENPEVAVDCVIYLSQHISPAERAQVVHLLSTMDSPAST
Chain of fungal (fACC2) ACC2 (Q00955 whole entry): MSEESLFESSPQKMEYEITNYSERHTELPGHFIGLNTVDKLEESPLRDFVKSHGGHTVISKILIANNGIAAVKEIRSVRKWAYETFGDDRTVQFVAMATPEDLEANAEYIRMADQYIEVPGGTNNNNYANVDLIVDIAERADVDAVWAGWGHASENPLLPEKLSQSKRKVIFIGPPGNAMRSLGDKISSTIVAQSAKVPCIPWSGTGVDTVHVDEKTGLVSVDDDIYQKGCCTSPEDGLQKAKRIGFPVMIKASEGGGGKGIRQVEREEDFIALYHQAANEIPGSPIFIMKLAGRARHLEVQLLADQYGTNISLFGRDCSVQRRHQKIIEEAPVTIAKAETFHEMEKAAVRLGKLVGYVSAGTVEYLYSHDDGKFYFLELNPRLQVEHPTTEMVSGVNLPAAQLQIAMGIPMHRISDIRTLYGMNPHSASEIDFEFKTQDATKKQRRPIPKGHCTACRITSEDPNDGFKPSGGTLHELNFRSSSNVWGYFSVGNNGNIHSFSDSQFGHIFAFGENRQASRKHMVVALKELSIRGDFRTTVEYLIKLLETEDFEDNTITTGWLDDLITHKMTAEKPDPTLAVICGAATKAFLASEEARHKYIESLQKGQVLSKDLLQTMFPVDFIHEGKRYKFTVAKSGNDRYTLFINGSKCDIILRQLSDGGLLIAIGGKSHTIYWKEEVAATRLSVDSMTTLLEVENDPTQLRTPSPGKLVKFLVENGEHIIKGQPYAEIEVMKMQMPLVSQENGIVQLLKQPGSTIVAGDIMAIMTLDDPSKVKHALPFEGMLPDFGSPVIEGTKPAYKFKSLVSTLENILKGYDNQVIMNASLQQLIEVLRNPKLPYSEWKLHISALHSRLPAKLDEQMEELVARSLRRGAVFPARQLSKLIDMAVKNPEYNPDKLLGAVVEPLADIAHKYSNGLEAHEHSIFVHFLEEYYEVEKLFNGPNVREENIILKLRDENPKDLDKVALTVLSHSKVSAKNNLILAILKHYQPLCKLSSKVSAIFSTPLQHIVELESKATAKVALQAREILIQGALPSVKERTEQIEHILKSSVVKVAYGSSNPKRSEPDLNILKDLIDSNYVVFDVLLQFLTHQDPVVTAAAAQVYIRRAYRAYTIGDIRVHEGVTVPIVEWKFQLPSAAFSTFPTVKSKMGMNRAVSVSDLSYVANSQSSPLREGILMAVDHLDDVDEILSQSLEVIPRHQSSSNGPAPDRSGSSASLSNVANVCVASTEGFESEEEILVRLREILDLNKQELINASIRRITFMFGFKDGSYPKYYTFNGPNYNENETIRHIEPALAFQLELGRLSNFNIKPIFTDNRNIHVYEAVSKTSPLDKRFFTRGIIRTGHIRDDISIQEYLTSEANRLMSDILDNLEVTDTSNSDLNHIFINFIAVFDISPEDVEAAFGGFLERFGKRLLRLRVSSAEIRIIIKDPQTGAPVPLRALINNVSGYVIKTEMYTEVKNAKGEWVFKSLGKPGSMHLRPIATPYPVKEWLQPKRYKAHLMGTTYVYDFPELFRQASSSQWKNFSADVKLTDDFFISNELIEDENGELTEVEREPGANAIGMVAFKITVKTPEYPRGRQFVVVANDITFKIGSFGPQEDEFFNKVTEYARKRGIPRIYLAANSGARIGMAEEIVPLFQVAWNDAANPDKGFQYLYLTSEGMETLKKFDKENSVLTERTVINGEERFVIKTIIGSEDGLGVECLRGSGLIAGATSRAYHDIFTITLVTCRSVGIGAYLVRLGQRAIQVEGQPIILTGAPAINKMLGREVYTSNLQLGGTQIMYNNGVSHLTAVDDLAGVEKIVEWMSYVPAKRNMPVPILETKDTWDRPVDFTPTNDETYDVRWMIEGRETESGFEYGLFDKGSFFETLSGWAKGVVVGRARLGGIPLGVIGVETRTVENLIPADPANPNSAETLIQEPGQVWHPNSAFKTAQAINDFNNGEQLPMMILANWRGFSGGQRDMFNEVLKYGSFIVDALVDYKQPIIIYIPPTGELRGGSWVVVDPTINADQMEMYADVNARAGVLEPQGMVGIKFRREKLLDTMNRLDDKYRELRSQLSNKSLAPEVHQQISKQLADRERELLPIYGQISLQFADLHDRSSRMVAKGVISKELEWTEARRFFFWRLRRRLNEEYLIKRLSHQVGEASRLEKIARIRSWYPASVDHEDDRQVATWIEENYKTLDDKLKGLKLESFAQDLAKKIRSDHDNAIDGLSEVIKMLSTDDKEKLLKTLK

Row | SMILES | IC50 [1] | IC90 ([3]; Table 4a) | IC90 ([3]; Table 4b) | IC90 ([4]; Table 4a) | IC90 ([4]; Table 4b) | IC90 ([6]; Table 4a) | IC90 ([6]; Table 4b) | IC90 ([7]; Table 4a) | IC90 ([7]; Table 4b) | MIC [10, 14] | MIC [11, 15] | MIC [12, 16] | IC50 [13] | IC90 ([2]; 48 h, Table 4a) | IC90 ([2]; 48 h, Table 4b) | IC90 [5] | Concentration at 90% Inhibition Fm ([5]; Table 4b, 48 hours) | IC90 ([8]; 48 h, Table 4a) | IC90 ([8]; 48 h, Table 4b) | IC90 [9, 17] | further results
1 | COc1ccc(F)cc1[C@H](Cn1c(=O)n(C(C)(C)C(=O)NC(C)C)c(=O)c2c(C)c(-n3cccn3)sc21)OC(C)C.I [Compound I-1, (R)-2-(I-(2-(5-fluoro-2-methoxyphenyl)-2-isopropoxyethyl)-5-methyl-2,4-dioxo-6-(1H-pyrazol-1-yl)-1,4-dihydrothieno[2,3-d]pyrimidin-3(2H)-yl)-N-isopropyl-2-methylpropanamide] | 0.6 to 3 nM | 2 µg/mL | 2 µg/mL | 0.4 µg/mL | 0.4 µg/mL | 2 µg/mL | 2 µg/mL | 2 µg/mL | 2 µg/mL | 2.1 to 4 µg/mL | 2.1 to 4 µg/mL | 0.25 to 1 µg/mL | 10 to 40 nM | – | – | – | – | – | – | – | IC90 ([2]; Table 4a, 48 hours): > 50 µg/mL; Concentration at 90% Inhibition Pc ([2]; Table 4b, 48 hours): D (“D” provided a compound concentration of >50 ppm at 90% inhibition of fungal pathogens); IC90 ([5]; Table 4a, 48 hours): 0.08 µg/mL; IC90 ([5]; Table 4b, 48 hours): 0.08 µg/mL; Concentration at 90% Inhibition St ([8]; Table 4b, 48 hours): D (“D” provided a compound concentration of >50 ppm at 90% inhibition of fungal pathogens); IC90 ([8]; Table 4a, 48 hours): > 50 µg/mL; IC90 ([9]; Table 4a, 48 hours, read-out: Concentration at 90% Inhibition Fv): 0.4 µg/mL; IC90 ([9]; Table 4b, 48 hours, read-out: Concentration at 90% Inhibition Fv): 0.4 µg/mL
2 | COc1ccc(F)cc1[C@H](Cn1c(=O)n(C(C)(C)C(=O)N2CCCCC2)c(=O)c2c(C)c(-n3cccn3)sc21)OC(C)C [Compound I-2, (R)-1-(2-(5-fluoro-2-methoxyphenyl)-2-isopropoxyethyl)-5-methyl-3-(2-methyl-1-oxo-1-(piperidin-1-yl)propan-2-yl)-6-(1H-pyrazol-1-yl)thieno[2,3-d]pyrimidine-2,4(1H,3H)-dione] | 0.6 to 3 nM | 0.4 µg/mL (≈ 0.654 µM) | 0.4 µg/mL (≈ 0.654 µM) | 0.4 µg/mL (≈ 0.654 µM) | 0.4 µg/mL (≈ 0.654 µM) | 0.4 µg/mL (≈ 0.654 µM) | 0.4 µg/mL (≈ 0.654 µM) | 2 µg/mL (≈ 3.27 µM) | 2 µg/mL (≈ 3.27 µM) | – | – | – | 10 to 40 nM | > 50 µg/mL | > 50 µg/mL | 0.08 µg/mL (≈ 0.131 µM) | AA (“AA” provided a compound concentration of 0.08 ppm at 90% inhibition of fungal pathogens) | > 50 µg/mL | > 50 µg/mL | 0.4 µg/mL (≈ 0.654 µM) | IC90 [9, 18]: 0.4 µg/mL (≈ 0.654 µM); MIC ([10]; ATCC90028, 48 h): 0.25 to 1 µg/mL (≈ 0.409 to 1.63 µM); MIC ([11]; ATCC22019, 48 h): 1.1 to 2 µg/mL (≈ 1.8 to 3.27 µM); MIC ([12]; ATCC6258, 48 h): 0.25 to 1 µg/mL (≈ 0.409 to 1.63 µM)
3 | COc1ccccc1[C@H](Cn1c(=O)n(C(C)(C)C(=O)N2CCCCC2)c(=O)c2c(C)c(-n3cccn3)sc21)OC1CCOCC1 [Compound I-13, (R)-1-(2-(2-methoxyphenyl)-2-((tetrahydro-2H-pyran-4-yl)oxy)ethyl)-5-methyl-3-(2-methyl-1-oxo-1-(piperidin-1-yl)propan-2-yl)-6-(1H-pyrazol-1-yl)thieno[2,3-d]pyrimidine-2,4(1H,3H)-dione] | 0.6 to 3 nM | > 50 µg/mL | 10 µg/mL (≈ 15.7 µM) | 2 µg/mL (≈ 3.15 µM) | 2 µg/mL (≈ 3.15 µM) | > 50 µg/mL | 10 µg/mL (≈ 15.7 µM) | > 50 µg/mL | 10 µg/mL (≈ 15.7 µM) | – | – | – | 10 to 40 nM | > 50 µg/mL | > 50 µg/mL | 0.4 µg/mL (≈ 0.629 µM) | A (“A” provided a compound concentration of 0.4 ppm at 90% inhibition of fungal pathogens) | > 50 µg/mL | > 50 µg/mL | > 50 µg/mL | IC90 [9, 18]: 10 µg/mL (≈ 15.7 µM); MIC ([10]; ATCC90028, 48 h): 0.25 to 1 µg/mL (≈ 0.393 to 1.57 µM); MIC ([11]; ATCC22019, 48 h): 1.1 to 2 µg/mL (≈ 1.73 to 3.15 µM); MIC ([12]; ATCC6258, 48 h): 0.25 to 1 µg/mL (≈ 0.393 to 1.57 µM)
4 | COCCCO[C@@H](Cn1c(=O)n(C(C)C(=O)N2CCCC2)c(=O)c2c(C)c(-n3cccn3)sc21)c1cc(F)ccc1OC (stereo partly shown) [Compound I-70] | 0.6 to 3 nM | – | – | – | – | – | – | – | – | > 4.1 µg/mL | > 4.1 µg/mL | > 4.1 µg/mL | 10 to 40 nM | – | – | – | – | – | – | – | –
5 | COc1ccccc1[C@H](Cn1c(=O)n(C(C)(C)C(=O)O)c(=O)c2c(C)c(-n3cccn3)sc21)OC1CCOCC1 [Compound I-71] | 0.6 to 3 nM | – | – | – | – | – | – | – | – | > 4.1 µg/mL | > 4.1 µg/mL | > 4.1 µg/mL | 10 to 40 nM | – | – | – | – | – | – | – | –
